The record followed here is patent US20130216552A1, “CRTH2 MODULATORS” (Ironwood Pharmaceuticals, Inc., priority 2010, published 2013).

Experiment [1] has as its target T1, CRTH2 (Homo sapiens, UniProt Q9Y5Y4).
T1 construct: polymorphonuclear cells (0.5 ml; 10^6/ml cells) in PBS containing 0.9 mM CaCl2 and 0.5 mM MgCl2; endogenous in cells; host or cells: polymorphonuclear cells (eosinophils gated by flow cytometry)
T1 sequence (Q9Y5Y4 1-395): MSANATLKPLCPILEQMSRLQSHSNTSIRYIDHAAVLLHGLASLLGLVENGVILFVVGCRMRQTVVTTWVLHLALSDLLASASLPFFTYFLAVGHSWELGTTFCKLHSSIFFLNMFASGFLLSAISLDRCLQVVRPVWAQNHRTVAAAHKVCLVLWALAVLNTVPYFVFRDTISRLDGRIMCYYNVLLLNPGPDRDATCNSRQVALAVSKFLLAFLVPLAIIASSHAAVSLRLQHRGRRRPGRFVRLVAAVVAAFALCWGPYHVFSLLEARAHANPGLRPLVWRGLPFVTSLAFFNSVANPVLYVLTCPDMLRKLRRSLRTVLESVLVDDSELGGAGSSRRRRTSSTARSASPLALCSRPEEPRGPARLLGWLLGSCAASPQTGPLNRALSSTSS
In words: DPBS CD11b Antagonist Assay. The format is cell-based. To be noted: polymorphonuclear cells in PBS with CaCl2/MgCl2; CD11b expression in eosinophils; agonist 15R-Methyl-PGD2 (10 nM). On the procedure:
DPBS CD11b Antagonist Assay
The potential CRTH2 antagonist activity of certain compounds was tested using a CD11b expression assay using essentially the method described by Monneret et al. (J Pharmacol Exp Ther 304:349-55, 2003). Briefly, polymorphonuclear cells (0.5 ml; 10^6/ml cells) in PBS containing 0.9 mM CaCl2 and 0.5 mM MgCl2) were preincubated with various concentrations of test compounds at room temperature for 10 minutes before they were challenged with the agonist 15R-Methyl-PGD2 (10 nM). The incubations were terminated by the addition of ice-cold FACSFlow (BD Biosciences; Cat#342003) and centrifugation (400 g for 5 minutes at 4° C.). The cells were then incubated for 30 minutes at 4° C. with a mixture of PE-labeled mouse anti-human VLA-4 (5 μl; BD Biosciences) and FITC-labeled mouse anti-human CD11b (10 μl; Beckman Coulter). The cells were then incubated with Optilyse C (0.25 ml; Beckman Coulter) for 15 minutes, centrifuged, and then fixed in PBS (0.4 ml; calcium and magnesium free) containing 1% formaldehyde. The distribution of fluorescence intensities among 60,000 cells was measured by flow cytometry. Eosinophils were gated out on the basis of their granularity (high side scatter) and labeling with VLA-4 (PE fluorescence). CD11b was then measured in the eosinophil region on the basis of fluorescence due to FITC. All data were corrected for the value obtained for the corresponding isotope control antibody.

Experiment [2] deals with T1, CRTH2. Nature of the experiment: Human Whole Blood CD11b Antagonist Assay. To be noted: CD11b expression in eosinophils, agonist 15R-Methyl-PGD2 (10 nM). The format is cell-based. As to the method: Human Whole Blood CD11b Antagonist Assay (Modified from Nicholson, et al. Pulmonary Pharmacology and Therapeutics: 20 (2007); 52-59)
The potential CRTH2 antagonist activity of certain compounds was tested in human whole blood using an assay that tests the ability of the compounds to block the CD11b expression in eosinophils by 15-R-methyl-PGD2. A CRTH2 antagonist should block CD11b expression by subsequently added 15-Methyl-PGD2. Human whole blood ([…]) was incubated at 37° C. for 10 minutes in the presence of various concentrations of test compounds before being challenged with the agonist 15R-Methyl-PGD2 (10 nM). Reactions were terminated by the addition of ice-cold PBS+0.5% BSA+2 mM EDTA (1 mL) and centrifugation (300×g for 5 minutes at 4° C.) Cells were then incubated at 4° C. for 10 min in the presence of human IgG. Cells were then incubated for 30-45 min with a mixture of PE-Cy5-labeled mouse anti-human CD16 (10 ul; BD Biosciences) and FITC-labeled mouse anti-human CD11b (10 μL; Beckman Coulter.) After rinsing (1 mL ice-cold PBS+0.5% BSA+2 mM EDTA), red blood cells were lysed by the addition of 1 mL ice-cold H2O to the cell pellet for 30 sec-1 min immediately followed by the addition of 3.5% NaCl (300 μL.) Cells were then rinsed (2×−1 ml ice cold PBS+0.5% BSA+2 m MEDTA) and fixed in PBS containing 1% formaldehyde. The distribution of fluorescence intensities was measured by flow cytometry. Eosinophils were gated out on the basis of their granularity (high side scatter) and absence of CD-16. CD11b was then measured on this eosinophil population on the basis of fluorescence due to FITC.

In the case of `Cc1c(Cc2ccccc2S(=O)(=O)N2CCCC2)c2scnc2n1CC(=O)O` [Compound I-2, 2-(5-Methyl-6-(2-(pyrrolidin-1-ylsulfonyl)benzyl)-4H-pyrrolo[2,3-d]thiazol-4-yl)acetic acid], at CRTH2 [1], the half-inhibitory concentration (IC50) was 100 to 500 nM. Turning to `Cc1c(Cc2ccccc2S(=O)(=O)N2CCCC2)c2sccc2n1CC(=O)O` [Compound I-4, 2-(5-Methyl-6-(2-(pyrrolidin-1-ylsulfonyl)benzyl)-4H-thieno[3,2-b]pyrrol-4-yl)acetic acid], the IC50 on CRTH2 [1] was in the range of 1 to 5 nM; on CRTH2 [2] it was 20 to 100 nM. For `Cc1c(Cc2ccccc2S(=O)(=O)N2CCOCC2)c2ccsc2n1CC(=O)O` [Compound I-6, 2-(5-Methyl-4-(2-(morpholinosulfonyl)benzyl)-6H-thieno[2,3-b]pyrrol-6-yl)acetic acid] the same measures were < 1 nM and 5 to 20 nM. For the compound `Cc1c(Cc2ccccc2S(=O)(=O)c2ccccc2)c2ccsc2n1CC(=O)O` [Compound I-3, 2-(5-Methyl-4-(2-(phenylsulfonyl)benzyl)-6H-thieno[2,3-b]pyrrol-6-yl)acetic acid], the figures for the IC50 at CRTH2 [1] and on CRTH2 [2] were < 1 nM and 5 to 20 nM, respectively. For `Cc1c(Cc2ccccc2S(=O)(=O)N2CCOCC2)c2scnc2n1CC(=O)O` [Compound I-5, 2-(5-Methyl-6-(2-(morpholinosulfonyl)benzyl)-4H-pyrrolo[2,3-d]thiazol-4-yl)acetic acid] the same measures were 3000 to 5000 nM and 3000 to 5000 nM. On to `Cc1c(Cc2ccccc2S(=O)(=O)N2CCCC2)c2ccsc2n1CC(=O)O` [Compound I-1, 2-(5-Methyl-4-(2-(pyrrolidin-1-ylsulfonyl)benzyl)-6H-thieno[2,3-b]pyrrol-6-yl)acetic acid], for which the IC50 at CRTH2 [1] is < 1 nM; at CRTH2 [2], 20 to 100 nM.
